Measured values as given in US20140073793A1, “Germanium-containing camptothecin analogues” (BioNumeric Pharmaceuticals, Inc., priority 2012, published 2014).
pIC50: −log10 of the molar value. Where two headings read alike, the source gives them in different places.

Columns and labels:
A2780/DX5 cells = test: cells; assay type: cell-based, human
Protocol: (§1) Wild type human ovarian cancer cells (A2780/WT) and doxorubicin-resistant human ovarian cancer cells (A2780/DX5) were cultured in RPMI 1640 medium supplemented with 10% fetal bovine serum and 2 mM glutamine, and grown in a 37° C. incubator with 5% CO2. BNP1350 (also designated 7-[2-trimethylsilyl)ethyl]-20(S)-camptothecin; BNP1350; and Karenitecin®); BNP1394 (also designated 7-[2′-trimethylgermanyl]ethyl-20(S) camptothecin; Topotecan; and 9-NH2-camptothecin were synthesized and purified at BioNumerik Pharmaceuticals, Inc., and dissolved in DMSO for use in cytotoxicity experiments where inhibition of cell growth was measured using the sulforhodamine B (SRB) assay to assess cytotoxicity and absorbance at 570 nm (A570) in order to calculate the percentage of cell control (or percent cell survival) SRB assay. See. e.g., Skehan P., Stieng R., Scudiero D., et al. New colorimetric cytotoxicity assay for anticancer-drug screen. J. Natl. Cancer Inst. 82:1107-1112 (1990)).
(§2) Briefly, cells were seeded (500 cells/well in 100 μL volume) to 96-well microliter plates and allowed to attach for 24 hours prior to treatment with BNP1350, BNP1394, Topotecan, and 9-NH2-camptothecin for 2 hours. Following this 2 hour treatment, BNP1350, BNP1394, Topotecan, and 9-NH2-camptothecin were removed, cells were washed with drug-free media (200 μL) and then drug-free media (200 μL) was added to the cells and cells were allowed to continue growing at 37° C. with 5% CO2 before the SRB assay was performed (total experiment time from time of seeding was 5 days, during which a total of five (5) cell-doublings occurred).
(§3) Wild-type human ovarian cancer cells (A2780/WT) and doxorubicin-resistant human ovarian cancer cells (A2780/DX5) were cultured in RPMI 1640 medium supplemented with 10% fetal bovine serum and 2 mM L-glutamine, and grown in a 37° C. incubator with 5% CO2. Population doubling times for the two cell lines used in this study encompassed a total of five cell doublings corresponding to approximately 5 days for A2780/WT and A2780/DX5 cells. Both cell lines were maintained as monolayered cultures in T-25 or T-75 flasks and then seeded to microliter plate wells for experiments described herein.
(§4) In brief, cells were seeded (500 cells/well in 100 μL total volume) into 96-well microliter plates and allowed to attach for 24 hours prior to treatment with BNP1350, BNP1394, Topotecan, or 9-NH2-camptothecin for 2 hours. The aforementioned compounds were dissolved in DMSO for use in cytotoxicity experiments where inhibition of cell growth was measured using the SRB assay.
(§5) Following this 2 hour drug treatment, the BNP1350, BNP1394, Topotecan, and 9-NH2-camptothecin were removed, cells were washed with drug-free media (200 μL) and then drug-free media (200 μL) was added to the cells and cells were allowed to continue growing at 37° C. with 5% CO2 before the SRB assay was performed (total experiment time from time of seeding was 5 days, during which time a total of 5 cell doublings had occurred).
(§6) The sulforhodamine B (SRB) cytotoxicity assay (see, Skehan P, et al., New colorimetric cytotoxicity assay for anticancer-drug screening. J. Natl. Cancer Inst. 82:1107-1112 (1990)) was used to determine the cytotoxic effects of BNP1350, BNP10120 or BNP10121 on cell growth in vitro. Briefly, after the medium was aspirated from individual plate wells, trichloroacetic acid (100 μL of 10.0% solution) was added to each well, and the plates were incubated at 4° C. for at least 1 hour. The plates were washed five-times with water using an automated microplate washer (Model EL 404, Bio-Tek Instruments), SRB solution (100 μL of 0.4 grams SRB dissolved in 100 mL 1.0 percent acetic acid) was added, and plates remained at room temperature for 15 minutes. The plates were then washed five-times using acetic acid (1.0%), air dried, and bound dye was solubilized in Tris base (150 μL, 10 mM). […]

A2780/WT cells = test: cells; assay type: cell-based, human
Protocol: as §1, §2, §3, §4, §5, §6

[1] = 2 hour drug treatment, SRB at 5 days, read-out: IC50 Test 1
[2] = 2 hour drug treatment, SRB at 5 days, read-out: IC50 Test 2
[3] = 2 hour drug treatment, SRB at 5 days, read-out: IC50 Test 3
[4] = 2 hour drug treatment, SRB at 5 days, read-out: IC50 Test 4
[5] = 2 hour drug treatment, SRB at 5 days, read-out: IC50 Test 5
[6] = average of the tests, read-out: IC50 Average
[7] = 2 hour drug treatment, SRB at 5 days, read-out: IC50 Test 6
[8] = average of Tests 1-6, read-out: IC50 Average
[9] = Homo sapiens, 2 hour drug treatment, SRB at 5 days, read-out: IC50 Test 1
[10] = Homo sapiens, 2 hour drug treatment, SRB at 5 days, read-out: IC50 Test 2
[11] = Homo sapiens, 2 hour drug treatment, SRB at 5 days, read-out: IC50 Test 3
[12] = Homo sapiens, 2 hour drug treatment, SRB at 5 days, read-out: IC50 Test 4
[13] = Homo sapiens, 2 hour drug treatment, SRB at 5 days, read-out: IC50 Test 5

Row | SMILES | inhibition of cell growth (in words) (A2780/DX5 cells) | pIC50 (A2780/DX5 cells; [1]) | pIC50 (A2780/DX5 cells; [2]) | pIC50 (A2780/DX5 cells; [3]) | pIC50 (A2780/DX5 cells; [4]) | pIC50 (A2780/DX5 cells; [5]) | pIC50 (A2780/DX5 cells; [6]) | inhibition of cell growth (in words) (A2780/WT cells) | pIC50 (A2780/WT cells; [1]) | pIC50 (A2780/WT cells; [2]) | pIC50 (A2780/WT cells; [3]) | pIC50 (A2780/WT cells; [4]) | pIC50 (A2780/WT cells; [5]) | pIC50 (A2780/WT cells; [7]) | pIC50 (A2780/WT cells; [8]) | IC50 values (in words) (A2780/DX5 cells) | IC50 values (in words) (A2780/WT cells) | further results
1 | CC[C@@]1(O)C(=O)OCc2c1cc1n(c2=O)Cc2cc3c(N)cccc3nc2-1 [9-NH2-camptothecin, 9-amino camptothecin] | inhibitors | 6.22 | 6.60 | 6.60 | 6.26 | 6.22 | 6.35 | inhibitors | 6.82 | 7.05 | 6.82 | 6.70 | 6.60 | 7.05 | 6.81 | – | – | –
2 | CC[C@@]1(O)C(=O)OCc2c1cc1n(c2=O)Cc2cc3c(CN(C)C)c(O)ccc3nc2-1 [Topotecan, 9-dimethylaminomethyl-10-hydroxy camptothecin] | inhibitors | – | – | – | – | – | – | inhibitors | – | – | – | – | – | – | – | – | – | pIC50 (A2780/DX5 cells; [9]): 6.26; pIC50 (A2780/DX5 cells; [10]): 6.10; pIC50 (A2780/DX5 cells; [11]): 5.70; pIC50 (A2780/DX5 cells; [12]): 6.00; pIC50 (A2780/DX5 cells; [13]): 5.70; pIC50 (A2780/DX5 cells; Homo sapiens, average of the tests, read-out: IC50 Average): 5.90; pIC50 (A2780/WT cells; [9]): 6.46; pIC50 (A2780/WT cells; [10]): 6.70; pIC50 (A2780/WT cells; [11]): 6.52; pIC50 (A2780/WT cells; [12]): 6.22; pIC50 (A2780/WT cells; [13]): 6.05; pIC50 (A2780/WT cells; Homo sapiens, 2 hour drug treatment, SRB at 5 days, read-out: IC50 Test 6): 6.22; pIC50 (A2780/WT cells; Homo sapiens, average of Tests 1-6, read-out: IC50 Average): 6.31
3 | CC[C@@]1(O)C(=O)OCc2c1cc1n(c2=O)Cc2c-1nc1ccccc1c2CC[Si](C)(C)C [BNP1350] | inhibitors | 7.82 | 7.82 | 7.82 | 7.62 | 8.00 | 7.80 | inhibitors | 7.82 | 7.82 | 7.82 | 7.70 | 7.89 | 7.80 | 7.82 | nanomolar | nanomolar | –
4 | CC[C@@]1(O)C(=O)OCc2c1cc1n(c2=O)Cc2c-1nc1ccccc1c2C[CH2][Ge]([CH3])([CH3])[CH3] [BNP1394, 7-[2′-trimethylgermanyl]ethyl-20(S) camptothecin] | inhibitors | – | – | – | – | – | – | inhibitors | – | – | – | – | – | – | – | nanomolar | nanomolar | –
